Literature values in patent US7014866B2, “High dose solid unit oral pharmaceutical dosage form of amorphous nelfinavir mesylate and process for making same” (Hoffmann-La Roche Inc., priority 2001, dated 2006).
Counter-ions that a name gives are not always drawn.

Conditions: water at pH less than or equal to 4

solubility in water: slightly soluble
Structure (SMILES): Cc1c(O)cccc1C(=O)N[C@@H](CSc1ccccc1)[C@H](O)CN1C[C@H]2CCCC[C@H]2C[C@H]1C(=O)NC(C)(C)C [Nelfinavir mesylate]
